From patent publication US12581252B2, “Substituted pyrrolo[3,4-b]pyridines as PI3K-α inhibitors” (Relay Therapeutics, Inc., priority 2020, dated 2026)

Biological target: H1047R PIK3CA enzyme (Homo sapiens, UniProt P42336, H1047R)
Test: ADP-Glo Biochemical PIK3CA Kinase Assay

H1047R PIK3CA enzyme, sequence (P42336 whole entry H1047R): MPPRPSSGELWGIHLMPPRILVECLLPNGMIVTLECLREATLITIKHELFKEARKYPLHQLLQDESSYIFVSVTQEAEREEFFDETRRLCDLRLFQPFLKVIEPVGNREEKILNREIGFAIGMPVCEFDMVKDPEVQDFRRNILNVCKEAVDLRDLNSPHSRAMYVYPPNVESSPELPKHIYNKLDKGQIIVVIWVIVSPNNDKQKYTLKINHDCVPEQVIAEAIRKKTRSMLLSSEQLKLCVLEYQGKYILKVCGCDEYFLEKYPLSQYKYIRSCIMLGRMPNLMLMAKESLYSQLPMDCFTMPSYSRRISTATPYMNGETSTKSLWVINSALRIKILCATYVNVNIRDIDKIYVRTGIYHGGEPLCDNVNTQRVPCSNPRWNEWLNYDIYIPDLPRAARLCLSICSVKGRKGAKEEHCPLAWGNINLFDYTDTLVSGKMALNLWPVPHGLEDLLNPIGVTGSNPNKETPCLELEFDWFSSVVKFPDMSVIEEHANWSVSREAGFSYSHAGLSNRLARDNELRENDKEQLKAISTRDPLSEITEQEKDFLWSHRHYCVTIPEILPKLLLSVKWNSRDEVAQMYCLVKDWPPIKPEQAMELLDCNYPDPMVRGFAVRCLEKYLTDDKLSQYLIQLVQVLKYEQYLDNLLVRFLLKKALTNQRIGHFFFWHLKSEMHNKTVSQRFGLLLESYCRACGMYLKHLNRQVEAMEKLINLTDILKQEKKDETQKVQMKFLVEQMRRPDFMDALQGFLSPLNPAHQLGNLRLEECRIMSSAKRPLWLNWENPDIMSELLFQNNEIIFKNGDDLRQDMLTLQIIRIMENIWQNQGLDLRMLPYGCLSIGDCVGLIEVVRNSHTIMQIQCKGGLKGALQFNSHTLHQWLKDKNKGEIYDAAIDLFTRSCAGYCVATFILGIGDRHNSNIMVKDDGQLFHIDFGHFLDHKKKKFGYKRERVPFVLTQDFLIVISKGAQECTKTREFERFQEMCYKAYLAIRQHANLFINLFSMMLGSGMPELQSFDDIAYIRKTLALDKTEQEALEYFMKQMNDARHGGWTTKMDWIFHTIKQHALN
H1047R PIK3CA enzyme, sequence (P27986 whole entry partner): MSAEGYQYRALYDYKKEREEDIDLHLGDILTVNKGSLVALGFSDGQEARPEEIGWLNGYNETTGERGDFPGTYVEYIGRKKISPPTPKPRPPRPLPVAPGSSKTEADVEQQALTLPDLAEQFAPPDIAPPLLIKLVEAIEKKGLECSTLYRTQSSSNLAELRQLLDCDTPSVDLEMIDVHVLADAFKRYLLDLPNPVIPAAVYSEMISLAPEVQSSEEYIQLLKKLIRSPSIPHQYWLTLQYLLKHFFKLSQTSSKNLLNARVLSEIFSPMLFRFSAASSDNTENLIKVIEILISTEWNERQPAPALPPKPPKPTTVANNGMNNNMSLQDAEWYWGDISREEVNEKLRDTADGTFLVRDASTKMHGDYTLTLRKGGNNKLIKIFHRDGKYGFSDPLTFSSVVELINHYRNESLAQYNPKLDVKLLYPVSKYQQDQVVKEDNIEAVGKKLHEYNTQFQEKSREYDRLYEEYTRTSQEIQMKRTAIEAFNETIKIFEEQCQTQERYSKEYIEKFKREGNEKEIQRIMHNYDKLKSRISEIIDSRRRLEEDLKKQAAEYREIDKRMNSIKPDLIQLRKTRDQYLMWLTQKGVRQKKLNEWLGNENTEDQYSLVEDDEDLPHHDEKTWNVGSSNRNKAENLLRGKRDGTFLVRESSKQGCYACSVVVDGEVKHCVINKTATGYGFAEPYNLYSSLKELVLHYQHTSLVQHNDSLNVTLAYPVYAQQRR

Compound | IC50 [nM]
Cc1ccccc1C1NC(=O)c2cc(-c3cnn(C)c3)cc(NC(=O)c3csc4ccccc34)c21 (centres unmarked) [Compound I-115, N-[6-(1-methyl-1H-pyrazol-4-yl)-3-(2-methylphenyl)-1-oxo-2,3-dihydro-1H-isoindol-4-yl]-1-benzothiophene-3-carboxamide] | ≤ 100
Cc1ccccc1C1NC(=O)c2cc(C#N)cc(NC(=O)c3nsc4ccccc34)c21 (centres unmarked) [Compound I-116] | ≤ 100
Cc1ccccc1-n1[nH]c(=O)c2cccc(NC(=O)c3nsc4ccccc34)c21 [Compound I-117] | 1000 to 10000
O=C(Nc1cccc2c(=O)[nH]n(Cc3ccccc3)c12)c1csc2ccccc12 [Compound I-118] | 10000 to 100000
Cc1ccccc1C1NC(=O)c2c(CCO)ccc(NC(=O)c3csc4ccccc34)c21 (centres unmarked) [Compound I-119] | ≤ 100
Cc1ccccc1C1NC(=O)c2c(C(O)CO)ccc(NC(=O)c3csc4ccccc34)c21 (centres unmarked) [Compound I-120] | 100 to 500
CNC(=O)c1cc(NC(=O)c2nsc3ccccc23)c2c(c1)C(=O)NC2c1ccccc1C (centres unmarked) [Compound I-123] | ≤ 100
NCc1cc(NC(=O)c2cc(F)cc(C(F)(F)F)c2)c2c(c1)C(=O)NC2c1cc(F)ccc1Cl (centres unmarked) [Compound I-126] | ≤ 100
CC(=O)c1cc(NC(=O)c2cc(F)cc(C(F)(F)F)c2)c2c(c1)C(=O)NC2c1cc(F)ccc1Cl (centres unmarked) [Compound I-127, N-(6-Acetyl-3-(2-chloro-5-fluorophenyl)-1-oxoisoindolin-4-yl)-3-fluoro-5-(trifluoromethyl)benzamide] | ≤ 100
CC(C)(O)c1cc(NC(=O)c2cc(F)cc(C(F)(F)F)c2)c2c(c1)C(=O)NC2c1cc(F)ccc1Cl (centres unmarked) [Compound I-128, N-(3-(2-chloro-5-fluorophenyl)-6-(2-hydroxypropan-2-yl)-1-oxoisoindolin-4-yl)-3-fluoro-5-(trifluoromethyl)benzamide] | ≤ 100
COc1ccc2snc(C(=O)Nc3cccc4c3C(c3ccccc3C)NC4=O)c2c1 (centres unmarked) [Compound I-129] | 10000 to 100000
CC1(c2ccccc2)NC(=O)c2cccc(NC(=O)c3csc4ccccc34)c21 (centres unmarked) [Compound I-130] | 10000 to 100000
Cc1ccccc1C1NC(=O)c2cc(CO)cc(NC(=O)c3nsc4ccccc34)c21 (centres unmarked) [Compound I-131, N-[6-(Hydroxymethyl)-3-(2-methylphenyl)-1-oxo-2,3-dihydro-1H-isoindol-4-yl]-1,2-benzothiazole-3-carboxamide] | ≤ 100
Cc1ccccc1C1NC(=O)c2c(C#N)ccc(NC(=O)c3csc4ccccc34)c21 (centres unmarked) [Compound I-132, N-(7-Cyano-1-oxo-3-(o-tolyl)isoindolin-4-yl)benzo[b]thiophene-3-carboxamide] | ≤ 100
Cc1cc(Cl)ccc1C1NC(=O)c2cccc(NC(=O)c3nsc4ccccc34)c21 (centres unmarked) [Compound I-133] | 1000 to 10000
COCc1cc2c(c(N(C)C(=O)c3nsc4ccccc34)c1)C(c1ccccc1C)NC2=O (centres unmarked) [Compound I-134, N-(6-(Methoxymethyl)-1-oxo-3-(o-tolyl)isoindolin-4-yl)-N-methylbenzo[d]isothiazole-3-carboxamide] | 10000 to 100000
CC(=O)c1cc(NC(=O)c2nsc3ccccc23)c2c(c1)C(=O)NC2c1cc(F)ccc1Cl (centres unmarked) [Compound I-135] | 500 to 1000
CC(C)(O)c1cc(NC(=O)c2nsc3ccccc23)c2c(c1)C(=O)NC2c1cc(F)ccc1Cl (centres unmarked) [Compound I-136] | ≤ 100
O=C1NC(c2cc(F)ccc2C(F)F)c2c(NC(=O)c3nsc4ccccc34)cccc21 (centres unmarked) [Compound I-137] | ≤ 100
O=C(Nc1cccc2c1C(c1cc(F)ccc1C(F)F)NC2=O)c1cc(F)cc(C(F)(F)F)c1 (centres unmarked) [Compound I-138] | ≤ 100
Cc1ccccc1C1NC(=O)c2c(CN)ccc(NC(=O)c3csc4ccccc34)c21 (centres unmarked) [Compound I-140] | ≤ 100

Compound | IC50 [nM]
Cc1ccccc1C1NC(=O)c2cc(-c3cnoc3)cc(NC(=O)c3csc4ccccc34)c21 (centres unmarked) [Compound I-141] | ≤ 100
Cc1ccccc1C1NC(=O)c2nccc(NC(=O)c3cc(F)cc(C(F)(F)F)c3)c21 (centres unmarked) [Compound I-142] | 100 to 500
Cc1ccccc1C1NC(=O)c2c(N(C)C)ncc(NC(=O)c3nsc4ccccc34)c21 (centres unmarked) [Compound I-143] | 100 to 500
Cc1ccccc1C1NC(=O)c2cccc(NCc3nsc4ccccc34)c21 (centres unmarked) [Compound I-145] | 10000 to 100000
Cc1ccccc1C1NC(=O)c2nccc(NC(=O)N3CCc4ccccc43)c21 (centres unmarked) [Compound I-147, N-(7-oxo-5-(o-tolyl)-6,7-dihydro-5H-pyrrolo[3,4-b]pyridin-4-yl)indoline-1-carboxamide] | 100 to 500
Cc1ccccc1C1NC(=O)c2nccc(NC(=O)N3CCc4c(F)cc(F)cc43)c21 (centres unmarked) [Compound I-148] | 500 to 1000
Cc1ccccc1C1NC(=O)c2c(C(N)=O)ccc(NC(=O)c3csc4ccccc34)c21 (centres unmarked) [Compound I-149, 7-(Benzo[b]thiophene-3-carboxamido)-3-oxo-1-(o-tolyl)isoindoline-4-carboxamide] | ≤ 100
CNC(=O)c1ccc(NC(=O)c2csc3ccccc23)c2c1C(=O)NC2c1ccccc1C (centres unmarked) [Compound I-150] | ≤ 100
Cc1ccccc1C1NC(=O)c2cccc(NC(=O)c3ncc4ccc(Cl)cn34)c21 (centres unmarked) [Compound I-151] | 10000 to 100000
Cc1ccccc1-n1[nH]c(=O)c2cccc(NC(=O)c3nsc4ccc(F)cc34)c21 [Compound I-152] | 1000 to 10000
Cc1ccccc1C1NC(=O)c2c(C)ccc(NC(=O)c3csc4ccccc34)c21 (centres unmarked) [Compound I-153, N-(7-Methyl-1-oxo-3-(o-tolyl)isoindolin-4-yl)benzo[b]thiophene-3-carboxamide] | 100 to 500
O=C1NC(c2cc(F)ccc2Cl)c2c(NC(=O)c3nsc4ccccc34)cc(CO)cc21 (centres unmarked) [Compound I-154] | ≤ 100
CNC(=O)c1cc(NC(=O)c2cc(F)cc(C(F)(F)F)c2)c2c(c1)C(=O)NC2c1ccccc1C (centres unmarked) [Compound I-156] | ≤ 100
O=C1NC(c2cc(Cl)ccc2Cl)c2c(NC(=O)c3nsc4ccccc34)cccc21 (centres unmarked) [Compound I-157] | ≤ 100
O=C1NC(c2cccnc2Cl)c2c(NC(=O)c3nsc4ccccc34)cccc21 (centres unmarked) [Compound I-158] | 1000 to 10000
O=C1NC(c2cc(F)c(F)cc2Cl)c2c(NC(=O)c3nsc4ccccc34)cccc21 (centres unmarked) [Compound I-159] | ≤ 100
O=C1NC(c2cnccc2Cl)c2c(NC(=O)c3nsc4ccccc34)cccc21 (centres unmarked) [Compound I-160] | 500 to 1000
Cn1cc(-c2cc(NC(=O)c3cc(F)cc(C(F)(F)F)c3)c3c(n2)C(=O)NC3c2cc(F)ccc2Cl)cn1 (centres unmarked) [Compound I-162] | ≤ 100
CNC(=O)c1cc(NC(=O)c2nsc3ccccc23)c2c(c1)C(=O)N[C@H]2c1ccccc1C [Compound I-163] | ≤ 100
Cc1ccccc1[C@H]1NC(=O)c2cc(C(=O)NCC(F)F)cc(NC(=O)c3nsc4ccccc34)c21 [Compound I-165] | 100 to 500
O=C1N[C@@H](c2cc(F)ccc2C(F)F)c2c(NC(=O)c3nsc4ccccc34)cccc21 [Compound I-168] | ≤ 100

Compound | IC50 [nM]
O=C(Nc1cccc2c1[C@@H](c1cc(F)ccc1C(F)F)NC2=O)c1cc(F)cc(C(F)(F)F)c1 [Compound I-169] | 1000 to 10000
O=C(Nc1cccc2c1[C@H](c1cc(F)ccc1C(F)F)NC2=O)c1cc(F)cc(C(F)(F)F)c1 [Compound I-170] | ≤ 100
O=C(Nc1ccnc2c1C(c1ccccc1Cl)NC2=O)c1cc(F)cc(Cl)c1 (centres unmarked) [Compound I-171] | 1000 to 10000
O=C1NC(c2ccccc2Cl)c2c(NC(=O)c3nsc4ccccc34)ccnc21 (centres unmarked) [Compound I-172] | 100 to 500
O=C(Nc1ccnc2c1C(c1cccc(F)c1F)NC2=O)c1cc(F)cc(Cl)c1 (centres unmarked) [Compound I-173] | 1000 to 10000
O=C(Nc1ccnc2c1C(c1cccc(F)c1F)NC2=O)c1cc(F)cc(C(F)(F)F)c1 (centres unmarked) [Compound I-174] | 1000 to 10000
O=C1NC(c2cccc(F)c2F)c2c(NC(=O)c3nsc4ccccc34)ccnc21 (centres unmarked) [Compound I-175] | 500 to 1000
Cc1ccccc1C1NC(=O)c2ccnc(NC(=O)c3nsc4ccccc34)c21 (centres unmarked) [Compound I-176, N-[3-(2-Methylphenyl)-1-oxo-1H,2H,3H-pyrrolo[3,4-c]pyridin-4-yl]-1,2-benzothiazole-3-carboxamide] | 1000 to 10000
Cc1ccccc1C1NC(=O)c2nccc(NC(=O)N3CCc4ccc(F)cc43)c21 (centres unmarked) [Compound I-177] | 500 to 1000
Cc1ccccc1-n1[nH]c(=O)c2cccc(NC(=O)c3cc(F)cc(C(F)(F)F)c3)c21 [Compound I-178] | 500 to 1000
Cc1ccccc1C1NC(=O)c2cccc(NC(=O)C34CCC(CC3)CC4)c21 (centres unmarked) [Compound I-179, N-(1-Oxo-3-(o-tolyl)isoindolin-4-yl)bicyclo[2.2.2]octane-1-carboxamide] | 1000 to 10000
Cc1ccccc1C1NC(=O)c2cccc(NC(=O)c3ncc4c(F)cc(F)cn34)c21 (centres unmarked) [Compound I-180, 6,8-Difluoro-N-(1-oxo-3-(o-tolyl)isoindolin-4-yl)imidazo[1,5-a]pyridine-3-carboxamide] | 10000 to 100000
Cc1ccccc1C1NC(=O)c2cc(CCO)cc(NC(=O)c3csc4ccccc34)c21 (centres unmarked) [Compound I-181, N-[6-(2-Hydroxyethyl)-3-(2-methylphenyl)-1-oxo-2,3-dihydro-1H-isoindol-4-yl]-1-benzothiophene-3-carboxamide] | ≤ 100
O=C(Nc1cc(-c2cn[nH]c2)nc2c1C(c1cc(F)ccc1Cl)NC2=O)c1cc(F)cc(Cl)c1 (centres unmarked) [Compound I-182] | 100 to 500
CSc1nc(NC(=O)c2cc(F)cc(C(F)(F)F)c2)c2c(n1)C(=O)NC2c1ccccc1Cl (centres unmarked) [Compound I-183] | 1000 to 10000
Nc1nc(NC(=O)c2cc(F)cc(C(F)(F)F)c2)c2c(n1)C(=O)NC2c1ccccc1Cl (centres unmarked) [Compound I-184] | 500 to 1000
O=C(Nc1cc(CO)cc2c1C(c1cc(F)ccc1Cl)NC2=O)c1cc(F)cc(C(F)(F)F)c1 (centres unmarked) [Compound I-185] | ≤ 100
Cn1cc(-c2cc(NC(=O)c3cc(F)cc(C(F)(F)F)c3)c3c(n2)C(=O)N[C@@H]3c2cc(F)ccc2Cl)cn1 [Compound I-186] | 500 to 1000
Cn1cc(-c2cc(NC(=O)c3cc(F)cc(C(F)(F)F)c3)c3c(n2)C(=O)N[C@H]3c2cc(F)ccc2Cl)cn1 [Compound I-187] | ≤ 100
O=C(Nc1cccc2c1C1(CCc3ccccc31)NC2=O)c1cc(F)cc(C(F)(F)F)c1 (centres unmarked) [Compound I-188] | 10000 to 100000
